According to EP0452101B1, “Spiro bridged and unbridged heterocyclic compounds” (ISRAEL INSTITUTE FOR BIOLOGICAL RESEARCH, priority 1990, dated 1991):
“And” between values parts separate entries of the source, which are not always exact repeats. Equal entries are not always repeated. Where two headings read alike, the source gives them in different places.

What was measured:
[1] = molecular target: T1, M2 muscarinic receptors (Rattus norvegicus, UniProt P10980); assay: Displacement of 3H-QNB from rat cerebellum, 50 mM phosphate buffer; format: binding
T1 construct: displacing from rat brain homogenates, cerebellum or frontal cortex; from tissue; host or cells: rat cerebellum homogenates
T1 sequence (P10980 1-466): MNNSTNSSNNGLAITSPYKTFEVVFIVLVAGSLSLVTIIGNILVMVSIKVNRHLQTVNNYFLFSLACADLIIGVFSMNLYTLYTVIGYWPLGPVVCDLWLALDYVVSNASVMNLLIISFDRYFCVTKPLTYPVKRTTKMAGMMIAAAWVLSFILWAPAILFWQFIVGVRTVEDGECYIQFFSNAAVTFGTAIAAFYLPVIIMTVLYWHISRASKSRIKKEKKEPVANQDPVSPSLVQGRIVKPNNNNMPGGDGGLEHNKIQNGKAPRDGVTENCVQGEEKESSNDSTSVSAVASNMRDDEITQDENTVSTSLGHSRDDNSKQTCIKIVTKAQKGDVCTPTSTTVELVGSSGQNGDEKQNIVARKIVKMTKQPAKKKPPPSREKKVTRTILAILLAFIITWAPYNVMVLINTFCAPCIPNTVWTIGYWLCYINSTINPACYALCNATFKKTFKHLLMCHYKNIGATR

[2] = molecular target: T2, M1 muscarinic receptor (Rattus norvegicus, UniProt P08482); assay: Displacement of 3H-QNB from rat cerebral cortex, 50 mM phosphate buffer; format: binding; details: for RATIOS c:a: KH2 cerebellum : KH1 cortex (3H-QNB); for % H1 / Ki: cortex, Table 5; for Ki: read-out: 3H-QNB-Binding KH1 (a)
T2 sequence (P08482 1-460): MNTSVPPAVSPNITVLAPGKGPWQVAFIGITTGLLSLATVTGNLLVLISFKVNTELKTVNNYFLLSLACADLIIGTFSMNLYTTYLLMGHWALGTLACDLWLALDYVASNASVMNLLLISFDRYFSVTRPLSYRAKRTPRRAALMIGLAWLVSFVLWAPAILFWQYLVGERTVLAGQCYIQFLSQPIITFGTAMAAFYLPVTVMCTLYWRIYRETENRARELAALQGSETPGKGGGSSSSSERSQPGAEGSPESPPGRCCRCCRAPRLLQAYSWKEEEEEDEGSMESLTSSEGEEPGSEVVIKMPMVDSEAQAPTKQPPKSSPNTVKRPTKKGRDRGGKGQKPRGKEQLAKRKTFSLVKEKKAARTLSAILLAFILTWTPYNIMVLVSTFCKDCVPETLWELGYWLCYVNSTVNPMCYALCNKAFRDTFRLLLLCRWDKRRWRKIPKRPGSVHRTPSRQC

[3] = molecular target: T2, M1 muscarinic receptor; assay: Displacement of 3H-PZ from rat cerebral cortex, 10 mM phosphate buffer; format: binding; set-up: from tissue; host or cells: rat cerebral cortex homogenates; details: for RATIOS c:a: KH cerebellum (3H-QNB) : KH cortex (3H-PZ)
[4] = test system: scopolamine-treated rats; assay: Passive avoidance (PA) in scopolamine-treated rats; format: in vivo, Sprague-Dawley rats
Method: Naive male Sprague-Dawley rats, three months old (obtained from Charles River Breeding, U.K.), were used (weighing 200-300 g.). The passive avoidance (PA) test is according to Fisher et al, Neurosci. Lett. 102: 325 (1989), except that in these rats amnesia was induced by scopolamine.
Eight groups of 17-20 naive rats were used. Each group was divided into two subgroups of 7-10 rats each: subgroup 1 was injected with scopolamine HBr (0.5 mg./kg. in saline, s.c., 15 min. before the shock) and subgroup 2 was injected with saline (1 ml./kg., s.c., 15 min. before the shock). Seven of the groups were treated within one minute after the shock with one of the following doses of the tested compound: 0.1, 0.5, 1, 3, 5, 8, 10 mg./kg. (in saline, i.p.) and one group received saline (1 ml./kg., i.p.).
Eight groups of 18-20 naive rats each were used. Each group was divided into two subgroups of 9-10 rats each: subgroup 1 was injected with scopolamine HBr (0.5 mg./kg. in saline, s.c., 15 min. before the shock) and subgroup 2 was injected with saline (1 ml./kg., s.c., 15 min. before the shock). Seven of the groups were treated, within one minute after the shock, with one of the following doses of AF125(N): 0.1, 0.5, 1, 3, 5, 8 or 10 mg./kg. (in saline, i.p.) and one group received saline (1 ml./kg., i.p.).

[5] = test system: Male white mice of the CD-1 strain; assay: Pharmacodynamic profile and general toxicity, Part B (signs, mortality, LD50); format: in vivo; set-up: key to Altered spontaneous motor activity (Mot): increased (inc); decreased (dec); key to Piloerection (Pil) / Hypothermia (Hyp) / Salivation (Sal) / Lacrimation (Lac) / Diarrhea (Dia) / Mydriasis (Myd): sli = slight; mod = moderate; sev = severe; details: Table 10
From the text: Male white mice of the CD-1 strain (Charles River, UK), within the body weight range of 18-26 g, were used throughout this study, carried out on AF123, AF125 and AF125(N).
Furthermore, these initial trials clearly established that the major signs of reactions to treatment consisted primarily of signs characteristic for potential cholinomimetic activity of the test material, such as tremors, salivation, lacrimation, diarrhea, analgesia, hypothermia and vasodilation. […]

[6] = test system: muscarinic receptors; assay: (-)3H-QNB binding to rat cerebral cortex homogenates with and without Cu++ treatment; details: for Ki: read-out: KL
[7] = cortex, Table 4, read-out: 3H-PZ-Binding KH (a)
[8] = post-shock AF125(N) 0.1 mg/kg i.p., pre-shock Scopolamine
[9] = post-shock AF125(N) 0.1 mg/kg i.p., pre-shock saline
[10] = post-shock AF125(N) 0.5 mg/kg i.p., pre-shock Scopolamine, 0.5 mg/kg
[11] = post-shock AF125(N) 0.5 mg/kg i.p., pre-shock saline
[12] = post-shock AF125(N) 1.0 mg/kg i.p., pre-shock Scopolamine
[13] = post-shock AF125(N) 1.0 mg/kg i.p., pre-shock saline
[14] = post-shock AF125(N) 3.0 mg/kg i.p., pre-shock Scopolamine
[15] = post-shock AF125(N) 3.0 mg/kg i.p., pre-shock saline
[16] = post-shock AF125(N) 5.0 mg/kg i.p., pre-shock Scopolamine
[17] = post-shock AF125(N) 5.0 mg/kg i.p., pre-shock saline, 5 mg/kg
[18] = post-shock AF125(N) 8.0 mg/kg i.p., pre-shock Scopolamine
[19] = post-shock AF125(N) 8.0 mg/kg i.p., pre-shock saline
[20] = post-shock AF125(N) 10.0 mg/kg i.p., pre-shock Scopolamine
[21] = post-shock AF125(N) 10.0 mg/kg i.p., pre-shock saline
[22] = 20 mg/kg i.v., animals affected/treated
[23] = with Cu++ pretreatment (100 µM, 30 minutes)

NC1=NCC2(CN3CCC2CC3)O1 (centres unmarked) [AF125(N), 2-Amino-spiro(1,3-oxazoline-5,3')quinuclidine]
% H ([1]; cerebellum, Table 4): 100% | % H2 ([1]; cerebellum, Table 5): 100% | Ki ([1]; read-out: 3H-QNB-Binding KH2 (c)): 50 µM | Ki ([1]; read-out: 3H-QNB-Binding KH (c)): 5 µM | RATIOS c:a [2]: 0.4 | % H1 [2]: 100% | Ki [2]: 112 µM | RATIOS c:a [3]: 83 | % H ([3]; cortex, Table 4): 28% | %L ([3]; cortex, Table 4): 72% | Ki [3, 7]: 0.6 µM | Ki ([3]; cortex, Table 4, read-out: 3H-PZ-Binding KL (b)): 3 µM | doses with significant enhancing effect on retention latency ([4]; i.p., scopolamine-treated rats): 0.5 mg/kg | Initial latency, Mean [4, 8]: 22.3 s | Retention latency, Mean [4, 8]: 199.7 s | Initial latency, Mean [4, 9]: 21.0 s | Retention latency, Mean [4, 9]: 554.7 s | Initial latency, Mean [4, 10]: 62.9 ± 17.4 s and 62.9 s | Retention latency, Mean [4, 10]: 332.7±80.9 sec. and 332.7* sec. | Initial latency, Mean [4, 11]: 28.1 s | Retention latency, Mean [4, 11]: 600.0 s | Initial latency, Mean [4, 12]: 29.1 s | Retention latency, Mean [4, 12]: 114.8 s | Initial latency, Mean [4, 13]: 22.0 s | Retention latency, Mean [4, 13]: 448.9 s | Initial latency, Mean [4, 14]: 23.1 s | Retention latency, Mean [4, 14]: 243.4 s | Initial latency, Mean [4, 15]: 44.1 s | Retention latency, Mean [4, 15]: 500.1 s | Initial latency, Mean [4, 16]: 24.6 s | Retention latency, Mean [4, 16]: 181.6 s | Initial latency, Mean [4, 17]: 65.1 ± 18.5 s and 65.1 s | Retention latency, Mean [4, 17]: 290.3 ± 52.1 s and 290.3 s | Initial latency, Mean [4, 18]: 16.3 s | Retention latency, Mean [4, 18]: 210.2 s | Initial latency, Mean [4, 19]: 19.3 s | Retention latency, Mean [4, 19]: 552.0 s | Initial latency, Mean [4, 20]: 21.5 s | Retention latency, Mean [4, 20]: 129.7 s | Initial latency, Mean [4, 21]: 4.9 s | Retention latency, Mean [4, 21]: 417.5 s | Altered spontaneous motor activity (Mot) ([5]; 20 mg/kg i.v.): dec | Mortality no. ([5]; 20 mg/kg i.v.): 0/5 | Mydriasis (Myd) ([5]; 20 mg/kg i.v.): sli | Salivation (Sal) ([5]; 20 mg/kg i.v.): sli | Respiratory distress (Res) [5, 22]: 4/5 | Tremors (Tre) [5, 22]: 3/5 | Mortality no. ([5]; 50 mg/kg i.v.): 5/5 | Mortality time ([5]; 50 mg/kg i.v.): immed | Mortality no. ([5]; 100 mg/kg i.v.): 5/5 | Mortality time ([5]; 100 mg/kg i.v.): immed | Altered spontaneous motor activity (Mot) ([5]; 200 mg/kg p.os): inc | Mortality no. ([5]; 200 mg/kg p.os): 0/5 | Mydriasis (Myd) ([5]; 200 mg/kg p.os): sli

c1ccc(C2=NCC3(CN4CCC3CC4)O2)cc1 (centres unmarked) [AF125(Ph), 2-Phenyl-spiro(1,3-oxazoline-5,3')quinuclidine]
% H ([1]; cerebellum, Table 4): 100% | Ki ([1]; cerebellum, Table 4, read-out: 3H-QNB-Binding KH (c)): 1.37 µM | % H2 ([1]; cerebellum, Table 5): 100% | Ki ([1]; cerebellum, Table 5, read-out: 3H-QNB-Binding KH2 (c)): 1.37 µM | RATIOS c:a [2]: 1.7 | % H1 [2]: 100% | Ki [2]: 0.8 µM | RATIOS c:a [3]: 17.1 | % H ([3]; cortex, Table 4): 100% | Ki [3, 7]: 0.08 µM

CN1[C@@H]2CC[C@H]1C[C@@H](OC(=O)C(CO)c1ccccc1)C2 (some centres unmarked) [Atropine]
%H (% of high affinity state) [6]: 0%

CN1CCN(CC(=O)N2c3ccccc3C(=O)Nc3cccnc32)CC1 [Pirenzepine]
%H (% of high affinity state) [6, 23]: 64±6% | %H (% of high affinity state) ([6]; without pretreatment): 72±3%

CN1[C@@H]2C[C@@H](OC(=O)[C@H](CO)c3ccccc3)C[C@H]1[C@@H]1O[C@@H]12 [Scopolamine]
%H (% of high affinity state) [6, 23]: 0% | Ki ([6]; with Cu++ pretreatment): 100 ± 5 pM | %H (% of high affinity state) ([6]; without pretreatment): 0% | Ki ([6]; without pretreatment): 90 ± 4 pM
